Reference: patent publication EP2818472A1, “Imidazo[4,5-c]pyridine and pyrrolo[3,2-c]pyridine compounds as G-protein-coupled receptor kinase 5 (GRK5) modulators” (Max-Planck-Gesellschaft zur Förderung der Wissenschaften …, priority 2013, dated 2014)

System: beta-TC6 cells
Test: Insulin HTRF assay (relative activity Ar) in beta-TC6 cells
Assay type: cell-based, mouse
Conditions: Mus musculus, Beta-TC6, 4 h, insulin HTRF, supernatant of beta-TC6 cells, incubation with test compound at 37°C for 2, 3, 4h; read-out: Ar (relative activity)
Procedure, shortened: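 beta-TC6 cells (15k/well, seeded 24 or 48 h) washed, then exposed to compound in induction buffer (0.5% DMSO final) for 2, 3 or 4 h at 37°C.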

First: CC(=O)Nc1cccc(Nc2nccc3c2cc(-c2ccsc2)n3C)c1 [Compound 287, N-[3-[[1-methyl-2-(3-thienyl)pyrrolo[3,2-c]pyridin-4-yl]amino]phenyl]acetamide]
Second: CN(C)C(=O)c1ccc(-c2cc3c(Nc4cccc(O)c4)nccc3n2C)cc1 [Compound 221, 4-[4-(3-hydroxyanilino)-1-methyl-pyrrolo[3,2-c]pyridin-2-yl]-N,N-dimethyl-benzamide]
The Emax of the first is higher: 50 to 100% for the first, 30 to 50% for the second.

COc1ccc(-c2nc3c(N4CCN(C)CC4)nccc3[nH]2)cc1 [Compound 396, 2-(4-methoxyphenyl)-4-(4-methylpiperazin-1-yl)-1H-imidazo[4,5-c]pyridine] and COc1ccc(Nc2nccc3[nH]c(-c4ccc(C)cc4)nc23)cc1 [Compound 382, N-(4-methoxyphenyl)-2-(p-tolyl)-1H-imidazo[4,5-c]pyridin-4-amine] fall in the same range of Emax: 30 to 50% for the first, 30 to 50% for the second.

First: Cn1c(NCC2CC2)nc2cnc(Nc3ccc(C(F)(F)F)cc3)cc21 [Compound 763, N2-(cyclopropylmethyl)-1-methyl-N6-[4-(trifluoromethyl)phenyl]imidazo[4,5-c]pyridine-2,6-diamine]
Second: Cn1c(NCC2CCCO2)nc2cnc(Nc3ccc(F)c(Cl)c3)cc21 (stereo not drawn) [Compound 643, N6-(3-chloro-4-fluoro-phenyl)-1-methyl-N2-(tetrahydrofuran-2-ylmethyl)imidazo[4,5-c]pyridine-2,6-diamine]
The Emax of the first is lower: 0 to 30% for the first, 30 to 50% for the second.

COc1ccc(Nc2nccc3[nH]c(-c4cccc(F)c4)nc23)cc1OC [Compound 404, N-(3,4-dimethoxyphenyl)-2-(3-fluorophenyl)-1H-imidazo[4,5-c]pyridin-4-amine] and COc1ccc(Nc2nccc3[nH]c(-c4cccc(OC)c4F)nc23)cc1OC [Compound 469, N-(3,4-dimethoxyphenyl)-2-(2-fluoro-3-methoxy-phenyl)-1H-imidazo[4,5-c]pyridin-4-amine] cannot be ordered by Emax: > 100% for the first, > 100% for the second.

CN(C)C(=O)c1ccc(-c2cc3c(Nc4cccc(NS(C)(=O)=O)c4)nccc3n2C)cc1 [Compound 225, 4-[4-[3-(methanesulfonamido)anilino]-1-methyl-pyrrolo[3,2-c]pyridin-2-yl]-N,N-dimethyl-benzamide] and CN(C)c1ccc(-c2cc3c(Nc4ccc(C(N)=O)cc4)nccc3n2C)cc1 [Compound 227, 4-[[2-(4-dimethylaminophenyl)-1-methyl-pyrrolo[3,2-c]pyridin-4-yl]amino]benzamide] fall in the same range of Emax: 30 to 50% for the first, 30 to 50% for the second.

First: Cn1c(NCC2CC2)nc2cnc(-c3cccc(Oc4ccccc4)c3)cc21 [Compound 758, N-(cyclopropylmethyl)-1-methyl-6-(3-phenoxyphenyl)imidazo[4,5-c]pyridin-2-amine]
Second: Cn1c(NCC2CC2)nc2cnc(-c3ccccc3)cc21 [Compound 826, N-(cyclopropylmethyl)-1-methyl-6-phenyl-imidazo[4,5-c]pyridin-2-amine]
The Emax of the first is lower: 0 to 30% for the first, 30 to 50% for the second.

CN1CCN(c2cc3[nH]c(-c4cccc(C(F)(F)F)c4)cc3cn2)CC1 [Compound 4, 6-(4-methylpiperazin-1-yl)-2-[3-(trifluoromethyl)phenyl]-1H-pyrrolo[3,2-c]pyridine] and FC(F)(F)c1cccc(-c2nc3c(NCCN4CCOCC4)nccc3[nH]2)c1 [Compound 357, N-(2-morpholinoethyl)-2-[3-(trifluoromethyl)phenyl]-1H-imidazo[4,5-c]pyridin-4-amine] fall in the same range of Emax: 30 to 50% for the first, 30 to 50% for the second.

Compared with CNc1nc2cnc(Nc3cccc(OC(C)C)c3)cc2n1Cc1ccc(OC)c(OC)c1 [Compound 676, 1-[(3,4-dimethoxyphenyl)methyl]-N6-(3-isopropoxyphenyl)-N2-methyl-imidazo[4,5-c]pyridine-2,6-diamine], CNc1nc2cnc(Nc3ccc(OC)c(OC)c3)cc2n1-c1ccccc1 [Compound 506, N6-(3,4-dimethoxyphenyl)-N2-methyl-1-phenyl-imidazo[4,5-c]pyridine-2,6-diamine] is higher in Emax: 30 to 50% for the first, 50 to 100% for the second.

OCCNc1nccc2[nH]c(-c3ccc4c(c3)OCCO4)nc12 [Compound 416, 2-[[2-(2,3-dihydro-1,4-benzodioxin-6-yl)-1H-imidazo[4,5-c]pyridin-4-yl]amino]ethanol] and COc1cccc(Nc2nccc3[nH]c(-c4ccc5c(c4)OCCO5)nc23)c1 [Compound 410, 2-(2,3-dihydro-1,4-benzodioxin-6-yl)-N-(3-methoxyphenyl)-1H-imidazo[4,5-c]pyridin-4-amine] fall in the same range of Emax: 30 to 50% for the first, 30 to 50% for the second.

First: c1cc2[nH]c(-c3ccsc3)cc2c(Nc2ccc3c(c2)OCCO3)n1 [Compound 252, N-(2,3-dihydro-1,4-benzodioxin-6-yl)-2-(3-thienyl)-1H-pyrrolo[3,2-c]pyridin-4-amine]
Second: CS(=O)(=O)c1cccc(Nc2nccc3[nH]c(-c4ccc5c(c4)OCCO5)nc23)c1 [Compound 417, 2-(2,3-dihydro-1,4-benzodioxin-6-yl)-N-(3-methylsulfonylphenyl)-1H-imidazo[4,5-c]pyridin-4-amine]
The Emax of the first is higher: 50 to 100% for the first, 30 to 50% for the second.

CN(C)C(=O)c1ccc(Nc2cc3c(cn2)cc(-c2cnn(C)c2)n3C)cc1 [Compound 148, N,N-dimethyl-4-[[1-methyl-2-(1-methylpyrazol-4-yl)pyrrolo[3,2-c]pyridin-6-yl]amino]benzamide] and CN(C)C(=O)c1ccc(Nc2cc3[nH]c(-c4ccccn4)cc3cn2)cc1 [Compound 70, N,N-dimethyl-4-[[2-(2-pyridyl)-1H-pyrrolo[3,2-c]pyridin-6-yl]amino]benzamide] cannot be ordered by Emax: > 100% for the first, > 100% for the second.

First: COc1cc(Nc2nccc3[nH]c(-c4ccc(C)cc4)nc23)cc(OC)c1OC [Compound 377, 2-(p-tolyl)-N-(3,4,5-trimethoxyphenyl)-1H-imidazo[4,5-c]pyridin-4-amine]
Second: Cc1ccc(-c2nc3c(Nc4cccc(O)c4)nccc3[nH]2)cc1 [Compound 383, 3-[[2-(p-tolyl)-1H-imidazo[4,5-c]pyridin-4-yl]amino]phenol]
The Emax of the first is lower: 30 to 50% for the first, 50 to 100% for the second.

Cn1c(Nc2ccccc2)nc2cnc(Nc3cccnc3)cc21 [Compound 633, 1-methyl-N2-phenyl-N6-(3-pyridyl)imidazo[4,5-c]pyridine-2,6-diamine] and Cn1c(-c2ccccc2)nc2cnc(Nc3ccc4c(c3)OCO4)cc21 [Compound 706, N-(1,3-benzodioxol-5-yl)-1-methyl-2-phenyl-imidazo[4,5-c]pyridin-6-amine] fall in the same range of Emax: 50 to 100% for the first, 50 to 100% for the second.

First: CNc1nc2cnc(-c3cccc(OC(F)(F)F)c3)cc2n1Cc1ccccc1 [Compound 762, 1-benzyl-N-methyl-6-[3-(trifluoromethoxy)phenyl]imidazo[4,5-c]pyridin-2-amine]
Second: CNc1nc2cnc(-c3cccc(O)c3)cc2n1Cc1ccccc1 [Compound 533, 3-[1-benzyl-2-(methylamino)imidazo[4,5-c]pyridin-6-yl]phenol]
The Emax of the first is lower: 0 to 30% for the first, 50 to 100% for the second.

Compared with Cn1c(NCc2ccccc2F)nc2cnc(-c3cccc(Cl)c3)cc21 [Compound 866, 6-(3-chlorophenyl)-N-[(2-fluorophenyl)methyl]-1-methyl-imidazo[4,5-c]pyridin-2-amine], CN(C)c1cccc(-c2cc3c(cn2)nc(NCc2ccccc2)n3C)c1 [Compound 620, N-benzyl-6-[3-(dimethylamino)phenyl]-1-methyl-imidazo[4,5-c]pyridin-2-amine] is higher in Emax: 30 to 50% for the first, > 100% for the second.

COc1cccc(-c2cc3c(Nc4cccnc4)nccc3[nH]2)c1 [Compound 308, 2-(3-methoxyphenyl)-N-(3-pyridyl)-1H-pyrrolo[3,2-c]pyridin-4-amine] and FC(F)(F)c1cccc(-c2cc3c(Nc4cccnc4)nccc3[nH]2)c1 [Compound 196, N-(3-pyridyl)-2-[3-(trifluoromethyl)phenyl]-1H-pyrrolo[3,2-c]pyridin-4-amine] fall in the same range of Emax: 50 to 100% for the first, 50 to 100% for the second.

First: COc1cc(OC)cc(-c2cc3c(Nc4cccc(NS(C)(=O)=O)c4)nccc3[nH]2)c1 [Compound 292, N-[3-[[2-(3,5-dimethoxyphenyl)-1H-pyrrolo[3,2-c]pyridin-4-yl]amino]phenyl]methanesulfonamide]
Second: COc1ccc(Nc2cc3[nH]c(-c4ccccn4)cc3cn2)c(C)c1 [Compound 63, N-(4-methoxy-2-methyl-phenyl)-2-(2-pyridyl)-1H-pyrrolo[3,2-c]pyridin-6-amine]
The Emax of the first is lower: 30 to 50% for the first, 50 to 100% for the second.

First: Cn1c(-c2ccccc2)nc2cnc(-c3ccc(N)nc3)cc21 [Compound 735, 5-(1-methyl-2-phenyl-imidazo[4,5-c]pyridin-6-yl)pyridin-2-amine]
Second: Cn1c(-c2ccco2)nc2cnc(-c3cccc(OC(F)(F)F)c3)cc21 [Compound 756, 2-(2-furyl)-1-methyl-6-[3-(trifluoromethoxy)phenyl]imidazo[4,5-c]pyridine]
The Emax of the first is higher: 30 to 50% for the first, 0 to 30% for the second.

First: CNc1nc2cnc(Nc3ccc(OC)nc3)cc2n1-c1cccc(C(F)(F)F)c1 [Compound 546, N6-(6-methoxy-3-pyridyl)-N2-methyl-1-[3-(trifluoromethyl)phenyl]imidazo[4,5-c]pyridine-2,6-diamine]
Second: CNc1nc2cnc(-c3ccccc3OC)cc2n1-c1ccccc1 [Compound 782, 6-(2-methoxyphenyl)-N-methyl-1-phenyl-imidazo[4,5-c]pyridin-2-amine]
The Emax of the first is higher: 30 to 50% for the first, 0 to 30% for the second.

First: CNc1nc2cnc(-c3cccc4ccccc34)cc2n1Cc1ccc(OC)c(OC)c1 [Compound 670, 1-[(3,4-dimethoxyphenyl)methyl]-N-methyl-6-(1-naphthyl)imidazo[4,5-c]pyridin-2-amine]
Second: CNc1nc2cnc(Nc3cc(OC)c(OC)c(OC)c3)cc2n1C [Compound 609, N2,1-dimethyl-N6-(3,4,5-trimethoxyphenyl)imidazo[4,5-c]pyridine-2,6-diamine]
The Emax of the first is lower: 30 to 50% for the first, 50 to 100% for the second.

First: CN(C)C(=O)c1ccc(-c2cc3cnc(Nc4cccnc4)cc3[nH]2)cc1 [Compound 22, N,N-dimethyl-4-[6-(3-pyridylamino)-1H-pyrrolo[3,2-c]pyridin-2-yl]benzamide]
Second: CNc1nc2cnc(Nc3ccc(OC)cc3C)cc2n1CC1CC1 [Compound 760, 1-(cyclopropylmethyl)-N6-(4-methoxy-2-methyl-phenyl)-N2-methyl-imidazo[4,5-c]pyridine-2,6-diamine]
The Emax of the first is higher: > 100% for the first, 0 to 30% for the second.
